{"source": "patent US20200087340A1", "about": "“LIF/LIFR ANTAGONIST IN ONCOLOGY AND NONMALIGNANT DISEASES” (Evestra, Inc., priority 2018, published 2020)", "key": {"[1]": {"system": "LIF-overexpressing MCF-7 (MCF-7 LIF) human breast cancer cells", "assay": "LIF specificity assay, cytotoxicity", "format": "cell-based", "conditions": "cytotoxicity MCF-7 vs. MCF-7 LIF (specificity towards LIF)"}, "[2]": {"system": "FC 1295 and imPSCc-2 organoids", "assay": "Pancreatic cancer / stellate cell line derived organoid system", "format": "cell-based, Murine", "conditions": "as compared to control", "method": "Most solid tumors have extensive stroma that not only facilitates the tumor progression but also impedes the delivery of the chemotherapeutic agents. Due to lack of any in-vitro system, presently it is difficult to evaluate any stroma-targeted therapies. Therefore, we developed an organoid system using labeled pancreatic cancer and stellate cell lines. Murine (FC 1295 and […]-2) cell lines cultured in different combinations were grown as an organoid system using matrigel. The organoids, starting day four were treated with either gemcitabine or EC359, a novel mifepristone derived steroidal cytotoxic agent that targets tumor stroma, or both in combination. qRT-PCR analysis of activated stroma signature genes was performed on the mRNA isolated from different treatment groups. H&E, immunohistochemistry, and western blot analysis were performed to further validate our findings. […] Our novel cell line derived organoid model can be utilized for fast, and inexpensive evaluation of stroma-targeted therapies."}}, "data": [{"compound": "C#CC(F)(F)[C@]1(O)CCC2C3CCC4=CC(=O)CCC4=C3C(c3ccc(-n4ccnc4)cc3)C[C@@]21C", "note": "(some centres unmarked) [EC351]", "values": [{"measurement": "melting point", "result": "175 to 178", "unit": "°C"}]}, {"compound": "C#CC(F)(F)[C@]1(O)CCC2C3CCC4=CC(=O)CCC4=C3C(c3ccc(OC)cc3)C[C@@]21C", "note": "(stereo partly drawn) [EC356, 17α-(1,1-difluoro-2-propyn-1-yl)-17β-hydroxy-11β-[4-p-(methoxy)phenyl]estra-4,9-dien-3-one]", "values": [{"measurement": "Fold Change", "setting": "[1]", "result": 2}]}, {"compound": "C#CC(F)(F)[C@]1(O)CCC2C3CCC4=CC(=O)CCC4=C3C(c3ccc(C(C)(C)C)cc3)C[C@@]21C", "note": "(stereo partly drawn) [EC357, 17α-(1,1-difluoro-2-propyn-1-yl)-17β-hydroxy-11β-[4-p-(t-butyl)phenyl]estra-4,9-dien-3-one]", "values": [{"measurement": "melting point", "result": "127 to 129", "unit": "°C"}]}, {"compound": "C#CC(F)(F)[C@]1(O)CCC2C3CCC4=CC(=O)CCC4=C3C(c3ccc(C(=C)C)cc3)C[C@@]21C", "note": "(stereo partly drawn) [EC358, 17α-(1,1-difluoro-2-propyn-1-yl)-17β-hydroxy-11β-[4-p-(1-methylethenyl)phenyl]estra-4,9-dien-3-one]", "values": [{"measurement": "Fold Change", "setting": "[1]", "result": 2}]}, {"compound": "C#CC(F)(F)[C@]1(O)CCC2C3CCC4=CC(=O)CCC4=C3C(c3ccc(C4CCCCC4)cc3)C[C@@]21C", "note": "(stereo partly drawn) [EC360, 17α-(1,1-difluoro-2-propyn-1-yl)-17β-hydroxy-11β-[4-p-(cyclohexyl)phenyl]estra-4,9-dien-3-one]", "values": [{"measurement": "Fold Change", "setting": "[1]", "result": 2}]}, {"compound": "C#CC(F)(F)[C@]1(O)CCC2C3CCC4=CC(=O)CCC4=C3C(c3ccc(S(=O)(=O)C4CC4)cc3)C[C@@]21C", "note": "(stereo partly drawn) [EC361, 17α-(1,1-difluoro-2-propyn-1-yl)-17β-hydroxy-11β-[4-p-(cyclopropylsulfonyl)phenyl]estra-4,9-dien-3-one]", "values": [{"measurement": "Fold Change", "setting": "[1]", "result": 20}]}, {"compound": "C#CC(F)(F)[C@]1(O)CCC2C3CCC4=CC(=O)CCC4=C3C(c3ccc(CCCCCCC)cc3)C[C@@]21C", "note": "(stereo partly drawn) [EC362, 17α-(1,1-difluoro-2-propyn-1-yl)-17β-hydroxy-11β-[4-p-(n-heptyl)phenyl]estra-4,9-dien-3-one]", "values": [{"measurement": "Fold Change", "setting": "[1]", "result": 2}]}, {"compound": "Nc1ccn([C@@H]2O[C@H](CO)[C@@H](O)C2(F)F)c(=O)n1", "note": "[Gemcitabine, reference compound]", "values": [{"measurement": "relative reduction in GFP fluorescence", "setting": "[2]", "result": 98, "unit": "%"}]}]}
